# Measurements published in US20240350441A1, “PHARMACEUTICAL FORMULATION AND A PROCESS FOR ITS PREPARATION” (SAVA HEALTHCARE LTD, priority 2021, published 2024).
# Where a name gives a salt, the structure may show the parent alone.
# Key:
# [1] = Solubility/stability of injectable cinnamic acid 6 mg/mL in diluents (HPLC, ICH); type: physicochemical; details: zero day
# Description: 6 mg of cinnamic acid was dissolved in 300 μl of 100% ethanol, sonicated for 5 min and then diluted to 1 ml with 5% PEG 400/5% DMSO/5% ethyl lactate to obtain a clear solution of cinnamic acid in the injectable form (injectable formulation). The formulation was evaluated for stability as per ICH guidelines.
# [2] = test system: Cyclophosphamide induced hepatotoxicity and renal changes; assay: Hepatic and renal parameters in cyclophosphamide induced neutropenia (Example 10); type: in vivo, Female Swiss Albino mice; details: for BUN (blood urea nitrogen) / SGOT Serum glutamic oxaloacetic transaminase / SGPT (Serum glutamic pyruvic transaminase) / Serum Creatinine / Uric acid: day 10
# Description: (§1) • 1. To induce neutropenia by administration of cyclophosphamide. • 2.
# (§2) Materials: Female Swiss Albino mice weighing between 25-27 g was procured from Global Bioresearch Solutions Pvt Ltd., Pune.
# (§3) On day 0, blood was withdrawn from all animals for basal hematological parameters. All the groups of animals except placebo group were injected with 150 mg/kg of cyclophosphamide through intraperitoneal route (i.p.), while group 1 was injected with water for injection, i.p. On Day 3, blood was withdrawn from all animals for Total and differential count (neutrophils, lymphocytes, and monocytes). The animals of group 2 to 7 were dosed with one additional dose of 100 mg/kg cyclophosphamide on Day 4. […] The cyclophosphamide control group was injected with water for injection from day 5 to day 9. On day 10, blood was withdrawn from all animals for total and differential count (neutrophils, lymphocytes, and monocytes), platelets, liver parameters AST (aspartate aminotransferase), ALT (alanine aminotransferase), and renal parameters—serum creatinine, blood urea nitrogen and uric acid.
# (§4) • Pure Picroside 1—1 tablet was dissolved in 0.1 ml of sterile water for injection and 0.1 ml was injected as subcutaneous injection. • The degraded Picroside 1 without salt (cinnamic acid of the present disclosure)—1 tablet was dissolved in 0.1 ml of sterile water for injection and 0.1 ml was injected as subcutaneous injection. • The Cinnamic acid low dose (0.6 mg/tablet) treated tablet was dissolved in 0.1 ml of sterile water for injection and 0.1 ml was injected as subcutaneous injection. • The Cinnamic acid high dose treated (6 mg/tablet) tablet was dissolved in 0.1 ml of sterile water for injection and 0.1 ml was injected as subcutaneous injection.
# [3] = test system: Cyclophosphamide induced neutropenia; assay: Cyclophosphamide induced neutropenia, hematological parameters (Example 10); type: in vivo, Female Swiss Albino mice; details: for Anti-neutropenic activity (words): inference from table 8A
# Description: as §1, §2, §3, §4
# neutropenia = assay: Efficacy dose for anti-neutropenic activity and human equivalent dose; type: in vivo, mice
# Description: The animal efficacy dose of the cinnamic acid prepared in accordance with the present disclosure was 0.6 mg/mice or 0.6 mg/25 g or 6 mg/250 g or 24 mg/kg mice.
# The human dose of the cinnamic acid prepared in accordance with the present disclosure, AED (animal equivalent dose) was divided by 12.3=24/12.3=1.95 mg/kg HED (human equivalent dose).
# The animal efficacy dose of the cinnamic acid prepared in accordance with the present disclosure was 6 mg/25 g or 60 mg/250 g mice or 240 mg cinnamic acid/kg.
# The human dose of the cinnamic acid prepared in accordance with the present disclosure, AED (animal equivalent dose) was divided by 12.3=240/12.3=19.51 mg/kg HED (human equivalent dose).
# [4] = 0.6 mg/tablet low dose, 1 tablet per animal per day for 5 days
# [5] = 6 mg/tablet high dose, 1 tablet per animal per day for 5 days
# [6] = vs CP control, cinnamic acid at both 0.6 mg/tablet low dose and 6 mg/tablet high dose
# [7] = Day 0, basal, 0.6 mg/tablet low dose
# [8] = Day 0, basal, 6 mg/tablet high dose
# [9] = Day 3, after cyclophosphamide, before treatment, 0.6 mg/tablet low dose
# [10] = Day 3, after cyclophosphamide, before treatment, 6 mg/tablet high dose
# [11] = Day 10, treated day 5 for 5 days, 0.6 mg/tablet low dose, 1 tablet per animal per day
# [12] = Day 10, treated day 5 for 5 days, 6 mg/tablet high dose, 1 tablet per animal per day
# [13] = vs CP control, day 10, cinnamic acid at both 0.6 mg/tablet low dose and 6 mg/tablet high dose
# [14] = G-CSF 2 μg s.c., others 1 tablet per animal per day for 5 days
# [15] = Day 0, basal, G-CSF 2 μg, Picroside tablets groups
# [16] = Day 3, after cyclophosphamide, before treatment, G-CSF 2 μg, Picroside tablets groups
# [17] = Day 10, treated day 5 for 5 days, G-CSF 2 μg s.c., others 1 tablet per animal per day
smiles,measurement,setting,value
"O=C(O)C=Cc1ccccc1 [The commercial synthetic Cinnamic acid, 3-Phenyl-2-propenoic acid]",HPLC area,[1]; 30% Ethanol with 3.5% PEG400,3128043
same,HPLC area,[1]; 30% Ethanol with 5% DMSO,3276296
same,HPLC area,[1]; 30% Ethanol with 5% Ethyl lactate,3175284
same,HPLC area,[1]; 100% Methanol,3379040
same,BUN (blood urea nitrogen),[2]; [4],9.533 mmol/L
same,SGOT Serum glutamic oxaloacetic transaminase,[2]; [4],33.67 IU/L
same,SGPT (Serum glutamic pyruvic transaminase),[2]; [4],36.5 IU/L
same,Serum Creatinine,[2]; [4],38.5 µM
same,Uric acid,[2]; [4],16.82 mg/L
same,BUN (blood urea nitrogen),[2]; [5],9.383 mmol/L
same,SGOT Serum glutamic oxaloacetic transaminase,[2]; [5],29.33 IU/L
same,SGPT (Serum glutamic pyruvic transaminase),[2]; [5],32.17 IU/L
same,Serum Creatinine,[2]; [5],37.5 µM
same,Uric acid,[2]; [5],16.66 mg/L
same,Effect on BUN level,[2]; [6],significant (p<0.001) decrease in BUN level
same,Effect on SGOT level,[2]; [6],significant (p<0.001) decrease in SGOT
same,Effect on SGPT level,[2]; [6],significant reversal (p<0.001)
same,Effect on serum creatinine level,[2]; [6],significant (p<0.001) decrease in creatinine level
same,Effect on uric acid level,[2]; [6],significant reversal (p<0.001) of uric acid level
same,% Lymphocytes,[3]; [7],45.17%
same,% Monocytes,[3]; [7],6.66%
same,% Neutrophils,[3]; [7],40.33%
same,No of Platelets,[3]; [7],736600 per cu · mm of blood
same,Total WBC Count,[3]; [7],7465 per cu · mm of blood
same,% Lymphocytes,[3]; [8],46.83%
same,% Monocytes,[3]; [8],6.82%
same,% Neutrophils,[3]; [8],40.17%
same,No of Platelets,[3]; [8],772500 per cu · mm of blood
same,Total WBC Count,[3]; [8],7237 per cu · mm of blood
same,% Lymphocytes,[3]; [9],83.67%
same,% Monocytes,[3]; [9],1.82%
same,% Neutrophils,[3]; [9],6.50%
same,No of Platelets,[3]; [9],630500 per cu · mm of blood
same,Total WBC Count,[3]; [9],2289 per cu · mm of blood
same,% Lymphocytes,[3]; [10],84%
same,% Monocytes,[3]; [10],1.66%
same,% Neutrophils,[3]; [10],6.333%
same,No of Platelets,[3]; [10],637000 per cu · mm of blood
same,Total WBC Count,[3]; [10],2306 per cu · mm of blood
same,% Lymphocytes,[3]; [11],61%
same,% Monocytes,[3]; [11],5.82%
same,% Neutrophils,[3]; [11],27.67%
same,No of Platelets,[3]; [11],641400 per cu · mm of blood
same,Total WBC Count,[3]; [11],4460 per cu · mm of blood
same,% Lymphocytes,[3]; [12],53%
same,% Monocytes,[3]; [12],5.82%
same,% Neutrophils,[3]; [12],33.17%
same,No of Platelets,[3]; [12],660300 per cu · mm of blood
same,Total WBC Count,[3]; [12],5389 per cu · mm of blood
same,Anti-neutropenic activity (words),[3]; listed as The commercial synthetic cinnamic acid,active to address neutropenia
same,Effect on % lymphocytes,[3]; [13],significant (p<0.001) decrease in % lymphocytes
same,Effect on % monocytes,[3]; [13],significantly (p<0.001) reversed
same,Effect on % neutrophil,[3]; [13],significantly (p<0.001) alleviated the cyclophosphamide-induced neutropenia
same,Effect on platelet count,[3]; [13],did not cause significant change in the platelet count
same,Effect on total WBC count,[3]; [13],significantly (p<0.001) reversed the cyclophosphamide induced decrease in WBC count
"O=C(O)C=Cc1ccccc1 [The degraded Picroside 1 without salt, cinnamic acid]",animal efficacy dose for anti-neutropenic activity,neutropenia; from 0.6 mg/mice (0.6 mg/25 g),24 mg/kg
same,animal efficacy dose,neutropenia; from 6 mg/25 g mice,240 mg cinnamic acid/kg
same,BUN (blood urea nitrogen),[2]; [14],9.467 mmol/L
same,SGOT Serum glutamic oxaloacetic transaminase,[2]; [14],27.5 IU/L
same,SGPT (Serum glutamic pyruvic transaminase),[2]; [14],30.33 IU/L
same,Serum Creatinine,[2]; [14],41 µM
same,Uric acid,[2]; [14],21.50 mg/L
same,Hepatic and renal parameters in neutropenic animal model,"[2]; inference from table 8B, as compared to GCSF",improved hepatic and renal parameters
same,% Lymphocytes,[3]; [15],46.5%
same,% Monocytes,[3]; [15],6.50%
same,% Neutrophils,[3]; [15],38.83%
same,No of Platelets,[3]; [15],759400 per cu · mm of blood
same,Total WBC Count,[3]; [15],7644 per cu · mm of blood
same,% Lymphocytes,[3]; [16],83.5%
same,% Monocytes,[3]; [16],1.82%
same,% Neutrophils,[3]; [16],6.667%
same,No of Platelets,[3]; [16],624000 per cu · mm of blood
same,Total WBC Count,[3]; [16],2253 per cu · mm of blood
same,% Lymphocytes,[3]; [17],58.83%
same,% Monocytes,[3]; [17],5.50%
same,% Neutrophils,[3]; [17],25.17%
same,No of Platelets,[3]; [17],631900 per cu · mm of blood
same,Total WBC Count,[3]; [17],3705 per cu · mm of blood
same,Anti-neutropenic activity (words),[3]; listed as the degraded Picroside 1 without salt,shows better anti-neutropenic activity
